Assay results reported in patent publication US8741906B2 (priority 2011, dated 2014).
Like-named read-outs stand apart in the source and are kept apart here.

Legend:
human CB2 receptors = target: T1, human CB2 receptors (Homo sapiens, UniProt P34972); test: functional cAMP assay, human CB2; assay type: cell-based; conditions: CHO cells expressing human CB2, cAMP; read-out: human CB2 EC50
T1 construct: expressed in transfected cells; host or cells: CHO cells
Description: (§1) CHO cells expressing human CB1 or CB2 receptors are seeded 17-24 hours prior to the experiment 50.000 cells per well in a black 96 well plate with flat clear bottom (Corning Costar #3904) in DMEM (Invitrogen No. 31331), 1×HT supplement, with 10% fetal calf serum and incubated at 5% CO2 and 37° C. in a humidified incubator. The growth medium was exchanged with Krebs Ringer Bicarbonate buffer with 1 mM IBMX and incubated at 30° C. for 30 min. Compounds were added to a final assay volume of 100 μl and incubated for 30 min at 30° C. Using the cAMP-Nano-TRF detection kit the assay (Roche Diagnostics) was stopped by the addition of 50 μl lysis reagent (Tris, NaCl, 1.5% Triton X100, 2.5% NP40, 10% NaN3) and 50 μl detection solutions (20 μM mAb Alexa700-cAMP 1:1, and 48 μM Ruthenium-2-AHA-cAMP) and shaken for 2 h at room temperature. The time-resolved energy transfer is measured by a TRF reader (Evotec Technologies GmbH), equipped with a ND:YAG laser as excitation source. The plate is measured twice with the excitation at 355 nm and at the emission with a delay of 100 ns and a gate of 100 ns, total exposure time 10 s at 730 (bandwidth 30 nm) or 645 nm (bandwidth 75 nm), respectively. The FRET signal is calculated as follows: FRET=T730-Alexa730-P(T645-B645) with P=Ru730-B730/Ru645-B645, where T730 is the test well measured at 730 nM, T645 is the test well measured at 645 nm, B730 and B645 are the buffer controls at 730 nm and 645 nm, respectively. cAMP content is determined from the function of a standard curve spanning from 10 μM to 0.13 nM cAMP.
(§2) EC50 values were determined using Activity Base analysis (ID Business Solution, Limited). The EC50 values for a wide range of cannabinoid agonists generated from this assay were in agreement with the values published in the scientific literature.

human CB1 receptors = target: T2, human CB1 receptors (Homo sapiens, UniProt P21554); test: functional cAMP assay, human CB1; assay type: cell-based
T2 construct: expressed in transfected cells; host or cells: CHO cells
Description: as §1, §2

[1] = CHO cells expressing human CB1, cAMP, read-out: human CB1 EC50

T1 sequence (P34972 whole entry): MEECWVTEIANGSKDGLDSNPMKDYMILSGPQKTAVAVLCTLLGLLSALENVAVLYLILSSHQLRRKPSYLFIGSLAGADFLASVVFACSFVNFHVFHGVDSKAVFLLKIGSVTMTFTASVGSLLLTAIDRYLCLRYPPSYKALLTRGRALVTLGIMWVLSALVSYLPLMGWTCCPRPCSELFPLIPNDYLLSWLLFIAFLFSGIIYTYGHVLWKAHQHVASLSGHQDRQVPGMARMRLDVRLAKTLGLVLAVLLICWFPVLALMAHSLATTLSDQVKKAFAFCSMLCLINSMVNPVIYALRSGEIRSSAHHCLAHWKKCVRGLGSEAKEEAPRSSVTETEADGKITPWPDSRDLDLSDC
T2 sequence (P21554 whole entry): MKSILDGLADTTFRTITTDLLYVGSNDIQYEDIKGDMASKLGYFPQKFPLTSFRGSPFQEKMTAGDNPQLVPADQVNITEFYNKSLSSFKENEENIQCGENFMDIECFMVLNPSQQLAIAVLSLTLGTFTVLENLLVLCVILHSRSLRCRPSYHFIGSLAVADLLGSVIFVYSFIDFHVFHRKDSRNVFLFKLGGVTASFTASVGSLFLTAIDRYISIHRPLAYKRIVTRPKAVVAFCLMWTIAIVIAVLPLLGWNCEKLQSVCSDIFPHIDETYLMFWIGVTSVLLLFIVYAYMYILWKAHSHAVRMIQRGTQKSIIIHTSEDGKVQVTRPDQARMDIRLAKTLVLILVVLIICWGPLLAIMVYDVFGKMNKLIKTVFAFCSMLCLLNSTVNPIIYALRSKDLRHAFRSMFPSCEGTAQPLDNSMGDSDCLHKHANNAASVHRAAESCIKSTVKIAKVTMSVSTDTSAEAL

CC(C)(C)c1nc(N2C[C@@H](O)[C@H](O)C2)c2nnn(Cc3ccccc3Cl)c2n1 (relative stereo) [Example 55, 1-[5-tert-Butyl-3-(2-chloro-benzyl)-3H-[1,2,3]triazolo[4,5-c]pyrimidin-7-yl]-pyrrolidine-3,4-trans-diol]
EC50 (human CB2 receptors): 10.4 nM
EC50 (human CB1 receptors; [1]): > 10000 nM

CC(C)(C)c1nc(N2CCOCC2)c2nnn(Cc3ccccc3Cl)c2n1 [Example 1, 5-tert-butyl-3-(2-chlorobenzyl)-7-morpholin-4-yl-3H-[1,2,3]triazolo[4,5-d]pyrimidine]
EC50 (human CB2 receptors): 0.6 nM
EC50 (human CB1 receptors; [1]): 1060 nM

CC(C)(C)c1nc(N2CCCCC2)c2nnn(Cc3ccccc3Cl)c2n1 [Example 2, 5-tert-Butyl-3-(2-chloro-benzyl)-7-piperidin-1-yl-3H-[1,2,3]triazolo[4,5-d]pyrimidine]
EC50 (human CB2 receptors): 1.6 nM
EC50 (human CB1 receptors; [1]): 555 nM

CC(C)(C)c1nc(N2CCC(F)(F)CC2)c2nnn(Cc3ccccc3Cl)c2n1 [Example 3, 5-tert-Butyl-3-(2-chloro-benzyl)-7-(4,4-difluoro-piperidin-1-yl)-3H-[1,2,3]triazolo[4,5-d]pyrimidine]
EC50 (human CB2 receptors): 1.3 nM
EC50 (human CB1 receptors; [1]): 160 nM

CN1CCN(c2nc(C(C)(C)C)nc3c2nnn3Cc2ccccc2Cl)CC1 [Example 4, 5-tert-Butyl-3-(2-chloro-benzyl)-7-(4-methyl-piperazin-1-yl)-3H-[1,2,3]triazolo[4,5-d]pyrimidine]
EC50 (human CB2 receptors): 1.4 nM
EC50 (human CB1 receptors; [1]): 190 nM

CC(C)(C)c1nc(N2CCCC2)c2nnn(Cc3ccccc3Cl)c2n1 [Example 5, 5-tert-Butyl-3-(2-chloro-benzyl)-7-pyrrolidin-1-yl-3H-[1,2,3]triazolo[4,5-d]pyrimidine]
EC50 (human CB2 receptors): 0.3 nM
EC50 (human CB1 receptors; [1]): 632 nM

CC(C)(C)c1nc(N2CCC(F)(F)C2)c2nnn(Cc3ccccc3Cl)c2n1 [Example 6, 5-tert-Butyl-3-(2-chloro-benzyl)-7-(3,3-difluoro-pyrrolidin-1-yl)-3H-[1,2,3]triazolo[4,5-d]pyrimidine]
EC50 (human CB2 receptors): 0.2 nM
EC50 (human CB1 receptors; [1]): 165 nM

CCNc1nc(C(C)(C)C)nc2c1nnn2Cc1ccccc1Cl [Example 7, [5-tert-Butyl-3-(2-chloro-benzyl)-3H-[1,2,3]triazolo[4,5-d]pyrimidin-7-yl]-ethyl-amine]
EC50 (human CB2 receptors): 11.2 nM
EC50 (human CB1 receptors; [1]): > 10000 nM

CC(C)(C)c1nc(NC2CCCCC2)c2nnn(Cc3ccccc3Cl)c2n1 [Example 8, [5-tert-Butyl-3-(2-chloro-benzyl)-3H-[1,2,3]triazolo[4,5-d]pyrimidin-7-yl]-cyclohexyl-amine]
EC50 (human CB2 receptors): 647 nM
EC50 (human CB1 receptors): > 10000 nM

CCN(CC)c1nc(C(C)(C)C)nc2c1nnn2Cc1ccccc1Cl [Example 9, [5-tert-Butyl-3-(2-chloro-benzyl)-3H-[1,2,3]triazolo[4,5-d]pyrimidin-7-yl]-diethyl-amine]
EC50 (human CB2 receptors): 17.6 nM
EC50 (human CB1 receptors; [1]): > 10000 nM

CC(C)(C)c1nc(N2CC3(COC3)C2)c2nnn(Cc3ccccc3Cl)c2n1 [Example 10, 5-tert-Butyl-3-(2-chloro-benzyl)-7-(2-oxa-6-aza-spiro[3.3]hept-6-yl)-3H-[1,2,3]triazolo[4,5-d]pyrimidine]
EC50 (human CB2 receptors): 2.4 nM
EC50 (human CB1 receptors; [1]): 404 nM

CC(C)(C)c1nc(N2CCC2)c2nnn(Cc3ccccc3Cl)c2n1 [Example 11, 7-Azetidin-1-yl-5-tert-butyl-3-(2-chloro-benzyl)-3H-[1,2,3]triazolo[4,5-d]pyrimidine]
EC50 (human CB2 receptors): 3.2 nM
EC50 (human CB1 receptors; [1]): 1090 nM

CC(C)(C)c1nc(N2CC(F)(F)C2)c2nnn(Cc3ccccc3Cl)c2n1 [Example 12, 5-tert-Butyl-3-(2-chloro-benzyl)-7-(3,3-difluoro-azetidin-1-yl)-3H-[1,2,3]triazolo[4,5-d]pyrimidine]
EC50 (human CB2 receptors): 1.6 nM
EC50 (human CB1 receptors; [1]): 1110 nM

CC(C)(C)c1nc(N2CC(O)C2)c2nnn(Cc3ccccc3Cl)c2n1 [Example 13]
EC50 (human CB2 receptors): 12.3 nM
EC50 (human CB1 receptors; [1]): > 10000 nM

CC1(O)CN(c2nc(C(C)(C)C)nc3c2nnn3Cc2ccccc2Cl)C1 [Example 14, 1-[5-tert-Butyl-3-(2-chloro-benzyl)-3H-[1,2,3]triazolo[4,5-d]pyrimidin-7-yl]-3-methyl-azetidin-3-ol]
EC50 (human CB2 receptors): 2.1 nM
EC50 (human CB1 receptors; [1]): 1230 nM

COC1CN(c2nc(C(C)(C)C)nc3c2nnn3Cc2ccccc2Cl)C1 [Example 15, 5-tert-Butyl-3-(2-chloro-benzyl)-7-(3-methoxy-azetidin-1-yl)-3H-[1,2,3]triazolo[4,5-d]pyrimidine]
EC50 (human CB2 receptors): 3.2 nM
EC50 (human CB1 receptors; [1]): 970 nM

C[C@@H]1CN(c2nc(C(C)(C)C)nc3c2nnn3Cc2ccccc2Cl)C[C@H](C)O1 [Example 16, 5-tert-Butyl-3-(2-chloro-benzyl)-7-((2R,6S)-2,6-dimethyl-morpholin-4-yl)-3H-[1,2,3]triazolo[4,5-d]pyrimidine]
EC50 (human CB2 receptors): 286 nM
EC50 (human CB1 receptors): > 10000 nM

CC1COCCN1c1nc(C(C)(C)C)nc2c1nnn2Cc1ccccc1Cl (centres unmarked) [Example 17, 5-tert-Butyl-3-(2-chloro-benzyl)-7-(3-methyl-morpholin-4-yl)-3H-[1,2,3]triazolo[4,5-d]pyrimidine]
EC50 (human CB2 receptors): 8.7 nM
EC50 (human CB1 receptors; [1]): > 10000 nM

CC(C)(C)c1nc(N2CCOC(CO)C2)c2nnn(Cc3ccccc3Cl)c2n1 (centres unmarked) [Example 18, {4-[5-tert-Butyl-3-(2-chloro-benzyl)-3H-[1,2,3]triazolo[4,5-d]pyrimidin-7-yl]-morpholin-2-yl}-methanol]
EC50 (human CB2 receptors): 46.6 nM
EC50 (human CB1 receptors; [1]): > 10000 nM

CC(C)(C)c1nc(N2CCSC2)c2nnn(Cc3ccccc3Cl)c2n1 [Example 19, 5-tert-Butyl-3-(2-chloro-benzyl)-7-thiazolidin-3-yl-3H-[1,2,3]triazolo[4,5-d]pyrimidine]
EC50 (human CB2 receptors): 1.7 nM
EC50 (human CB1 receptors; [1]): 131 nM

CC(C)(C)c1nc(N2CCSCC2)c2nnn(Cc3ccccc3Cl)c2n1 [Example 20, 5-tert-Butyl-3-(2-chloro-benzyl)-7-thiomorpholin-4-yl-3H-[1,2,3]triazolo[4,5-d]pyrimidine]
EC50 (human CB2 receptors): 1.7 nM
EC50 (human CB1 receptors; [1]): 346 nM

CC(C)(C)c1nc(N2CCS(=O)(=O)CC2)c2nnn(Cc3ccccc3Cl)c2n1 [Example 21, 5-tert-Butyl-3-(2-chloro-benzyl)-7-(1,1-dioxo-1λ6-thiomorpholin-4-yl)-3H-[1,2,3]triazolo[4,5-d]pyrimidine]
EC50 (human CB2 receptors): 2.7 nM
EC50 (human CB1 receptors; [1]): 601 nM

CC(C)(C)c1nc(N2CCCOCC2)c2nnn(Cc3ccccc3Cl)c2n1 [Example 22, 5-tert-Butyl-3-(2-chloro-benzyl)-7-[1,4]oxazepan-4-yl-3H-[1,2,3]triazolo[4,5-d]pyrimidine]
EC50 (human CB2 receptors): 2.4 nM
EC50 (human CB1 receptors; [1]): 1500 nM

CC1(C)CN(c2nc(C(C)(C)C)nc3c2nnn3Cc2ccccc2Cl)CCO1 [Example 23, 5-tert-Butyl-3-(2-chloro-benzyl)-7-(2,2-dimethyl-morpholin-4-yl)-3H-[1,2,3]triazolo[4,5-d]pyrimidine]
EC50 (human CB2 receptors): 75.4 nM
EC50 (human CB1 receptors; [1]): > 10000 nM

CC(C)(C)c1nc(N2CCOCC2(C)C)c2nnn(Cc3ccccc3Cl)c2n1 [Example 24, 5-tert-Butyl-3-(2-chloro-benzyl)-7-(3,3-dimethyl-morpholin-4-yl)-3H-[1,2,3]triazolo[4,5-d]pyrimidine]
EC50 (human CB2 receptors): 3 nM
EC50 (human CB1 receptors; [1]): 476 nM

C[C@@H]1CC[C@@H](C)N1c1nc(C(C)(C)C)nc2c1nnn2Cc1ccccc1Cl [Example 25, 5-tert-Butyl-3-(2-chloro-benzyl)-7-((2R,5R)-2,5-dimethyl-pyrrolidin-1-yl)-3H-[1,2,3]triazolo[4,5-d]pyrimidine]
EC50 (human CB2 receptors): 31 nM
EC50 (human CB1 receptors; [1]): 919 nM

CC(C)(C)c1nc(N2CCC(F)(F)C2)c2nnn(C3COC3)c2n1 [Example 91, 5-tert-Butyl-7-(3,3-difluoro-pyrrolidin-1-yl)-3-oxetan-3-yl-3H-[1,2,3]triazolo[4,5-d]pyrimidine]
EC50 (human CB2 receptors): 0.3 nM

CC(C)(C)c1nc(N2CCC(F)(F)C2)c2nnn(C(=O)c3ccccc3Cl)c2n1 [Example 92, [5-tert-Butyl-7-(3,3-difluoro-pyrrolidin-1-yl)-[1,2,3]triazolo[4,5-d]pyrimidin-3-yl]-(2-chloro-phenyl)-methanone]
EC50 (human CB2 receptors): 350 nM

CC(C)(C)c1nc(N2C[C@@H](O)C(F)(F)C2)c2nnn(Cc3ccccc3Cl)c2n1 [Example 95, (R)-1-[5-tert-Butyl-3-(2-chloro-benzyl)-3H-[1,2,3]triazolo[4,5-d]pyrimidin-7-yl]-4,4-difluoro-pyrrolidin-3-ol]
EC50 (human CB2 receptors): 1.5 nM

CC(C)(C)c1nc(N2CCC(F)(F)C2)c2nnn(S(=O)(=O)c3ccccc3Cl)c2n1 [Example 107, 5-tert-Butyl-3-(2-chloro-benzenesulfonyl)-7-(3,3-difluoro-pyrrolidin-1-yl)-3H-[1,2,3]triazolo[4,5-d]pyrimidine]
EC50 (human CB2 receptors): 284 nM
